Laboratory results taken from patent publication US5294611A, “Angiotensin II receptor blocking 2,3,6 substituted quinazolinones” (American Cyanamid Company, priority 1993, dated 1994).

Target: T1, Angiotensin II Receptor (Bos taurus, UniProt P25104)
T1 construct: The brownish tissue forming the adrenal cortex is scraped off and finely minced with scissors before homogenization; tissue local slaughter house (maxwell-Cohen); host or cells: beef adrenal cortex, 100,000 x g microsomal membranes
T1 sequence (P25104 1-359): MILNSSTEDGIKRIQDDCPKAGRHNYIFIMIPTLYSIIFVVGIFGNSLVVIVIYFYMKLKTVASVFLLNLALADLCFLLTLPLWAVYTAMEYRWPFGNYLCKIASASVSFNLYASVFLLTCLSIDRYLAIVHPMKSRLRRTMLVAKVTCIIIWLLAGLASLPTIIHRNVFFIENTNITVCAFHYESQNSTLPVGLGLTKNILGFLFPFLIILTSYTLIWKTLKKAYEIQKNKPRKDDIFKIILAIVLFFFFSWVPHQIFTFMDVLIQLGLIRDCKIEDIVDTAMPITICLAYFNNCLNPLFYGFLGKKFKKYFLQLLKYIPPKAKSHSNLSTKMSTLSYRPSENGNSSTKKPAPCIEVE
Experiment: Receptor Binding Assay: displacement of [^125 I](Sar^1,Ile^8)AngII from adrenal cortex microsomal membranes
Parameters: species or system beef (bovine adrenals)
Description: Beef adrenals are obtained from a local slaughter house (maxwell-Cohen). [^125 I](Sar^1,Ile^8)AngII, S.A. 2200 Ci/mmole, is purchased from Dupont (NEN®, Boston, Mass.). All unlabeled AngII analogs, Dimethylsulfoxide (DMSO), nucleotides, bovine serum albumin (BSA) are purchased from Sigma Chemical Co., St. Louis, Mo. U.S.A.
Approximately sixteen (16) to twenty (20) beef adrenal glands are processed as follows: fresh adrenal glands received on crushed ice are cleaned of fatty tissues and the tough membranes encapsulating the glands are removed and discarded. The brownish tissue forming the adrenal cortex is scraped off and finely minced with scissors before homogenization. Care is taken to avoid contamination with medullary tissue during dissection. The scraped cortices are suspended in twenty volumes of an ice-cold buffer medium consisting of 10 mM Tris.HCl (pH 7.4 at 22° C.) and containing 1.0 mM EDTA and 0.2M sucrose. Unless otherwise indicated, all subsequent operations are done at 4° C. […] The homogenate is centrifuged first at low speed (3,000× g) for 10 min. The resulting pellet is discarded and the supernatant fluid recentrifuged at 10,000× g for 15 minutes to give a P2 pellet. This P2 pellet is discarded and the liquid phase is carefully decanted off in clean centrifuge tubes and recentrifuged at high speed (100,000× g) for 60 min. The translucent final pellet is harvested and combined in a small volume (20-50.0 ml) of 50.0 mM Tris.HCl buffer, pH 7.2. A 100 ul aliquot is withdrawn and the protein content of the preparation is determined by the Lowry's method (Lowry, O. H., Rosebrough, N. F., Parr, A. L. and Randall, R. J., Protein measurement with Folin phenol reagent. J. Biol. Chem., 48, 265-275; 1951). The pelleted membrane is reconstituted in 50.0 mM Tris.HCl buffer containing 0.1 mM of phenylmethylsulfonyl fluoride (PMSF) to give approximately a protein concentration of 2.5 mg per ml of tissue suspension. The membrane preparation is finally aliquoted in 1.0 ml volumes and stored at -70° C. until use in the binding assays.
The binding of [^125 I](Sar^1,Ile^8)AngII to microsomal membranes is initiated by the addition of reconstituted membranes (1:10 vols.) in freshly made 50.0 mM Tris.HCl buffer, pH 7.4 containing 0.25% heat inactivated bovine serum albumin (BSA): 80 ul membrane protein (10 to 20 ug/assay) to wells already containing 100 ul of incubation buffer (as described above) and 20 ul [^125 I](Sar^1,ILE^8)AngII (Specific Activity, 2200 Ci/mmole). Non-specific binding is measured in the presence of 1.0 uM unlabeled (Sar^1,ILE^8)AngII, added in 20 ul volume. […] In competition studies, experimental compounds are diluted in dimethylsulfoxide (DMSO) and added in 20 ul to wells before the introduction of tissue membranes. […] Assays are performed in triplicate. The wells are left undisturbed for 60 min. at room temperature. Following incubation, all wells are harvested at once with a Brandel® Harvester especially designed for a 96 well plate (Brandel® Biomedical Research & Development Labs. Inc., Gaithersburg, Md., U.S.A.). The filter discs are washed with 10×1.0 ml of cold 0.9% NaCl to remove unbound ligand. […] This method is routinely used. The filters are removed from the filter grid and counted in a Parkard® Cobra Gamma Counter for 1 min. (Packard Instrument Co., Downers Grove, Ill., U.S.A.). The binding data are analyzed by the non-linear interactive "LUNDON-1" program (LUNDON SOFTWARE Inc., Cleveland, Ohio U.S.A.).

| Compound | IC50 [nM] | Specific binding of radioligand (microsomal membranes, 60 min, room temperature) |
| --- | --- | --- |
| CCCCc1nc2ccc([C@@H]3[C@@H]4C(=O)OC[C@@H]4ON3C)cc2c(=O)n1Cc1ccc(-c2ccccc2-c2nnn[nH]2)cc1 (relative stereo) [Example 54] | 160 |  |
| [^125 I](Sar^1,Ile^8) AngII [reference compound] |  | greater than 90% |
